Molecular target: T1, recombinant guanylate cyclase reporter cell line (Rattus norvegicus, UniProt P20595)
T1 construct: expressed in transfected cells; host or cells: CHO reporter cell line
T1 sequence (P20595 1-619): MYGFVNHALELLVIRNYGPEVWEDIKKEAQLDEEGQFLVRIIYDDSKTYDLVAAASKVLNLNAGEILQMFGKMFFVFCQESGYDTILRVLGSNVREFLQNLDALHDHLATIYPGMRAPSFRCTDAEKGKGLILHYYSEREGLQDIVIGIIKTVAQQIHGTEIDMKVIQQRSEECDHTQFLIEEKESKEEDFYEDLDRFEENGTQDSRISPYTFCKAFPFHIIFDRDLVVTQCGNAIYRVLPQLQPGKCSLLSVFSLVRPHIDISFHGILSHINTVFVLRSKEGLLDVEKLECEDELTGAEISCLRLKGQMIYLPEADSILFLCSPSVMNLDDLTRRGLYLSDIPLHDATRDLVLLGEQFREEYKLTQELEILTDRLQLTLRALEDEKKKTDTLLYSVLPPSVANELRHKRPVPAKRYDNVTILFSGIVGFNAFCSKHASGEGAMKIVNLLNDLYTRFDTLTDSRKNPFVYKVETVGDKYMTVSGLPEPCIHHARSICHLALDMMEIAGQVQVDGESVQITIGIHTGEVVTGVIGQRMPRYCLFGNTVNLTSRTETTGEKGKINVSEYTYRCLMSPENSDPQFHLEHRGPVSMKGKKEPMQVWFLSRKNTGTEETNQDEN
T1 sequence (P19686 1-690 partner): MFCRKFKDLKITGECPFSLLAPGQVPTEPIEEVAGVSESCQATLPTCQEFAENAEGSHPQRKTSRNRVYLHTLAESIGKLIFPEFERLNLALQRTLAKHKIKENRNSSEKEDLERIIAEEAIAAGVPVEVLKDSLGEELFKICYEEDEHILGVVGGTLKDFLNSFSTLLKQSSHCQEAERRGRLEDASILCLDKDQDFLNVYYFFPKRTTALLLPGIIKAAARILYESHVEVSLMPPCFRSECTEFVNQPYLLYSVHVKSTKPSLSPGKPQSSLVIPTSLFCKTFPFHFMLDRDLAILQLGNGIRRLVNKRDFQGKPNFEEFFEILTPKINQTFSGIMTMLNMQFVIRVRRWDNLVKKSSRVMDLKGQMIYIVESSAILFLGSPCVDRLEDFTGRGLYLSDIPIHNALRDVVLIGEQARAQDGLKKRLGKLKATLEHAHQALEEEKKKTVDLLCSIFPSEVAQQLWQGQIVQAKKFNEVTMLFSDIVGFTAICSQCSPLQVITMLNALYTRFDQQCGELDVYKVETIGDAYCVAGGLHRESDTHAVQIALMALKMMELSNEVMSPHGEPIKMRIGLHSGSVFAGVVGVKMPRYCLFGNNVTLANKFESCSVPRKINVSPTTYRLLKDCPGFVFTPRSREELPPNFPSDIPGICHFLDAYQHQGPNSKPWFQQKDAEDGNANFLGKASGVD
Assay: sGC-activating activity in the CHO reporter cell in vitro
Assay type: cell-based
Experimental: The cellular action of the compounds according to the invention is determined at a recombinant guanylate cyclase reporter cell line, as described in F. Wunder et al., Anal. Biochem. 339, 104-112 (2005).

| SMILES | MEC (minimum effective concentration), sGC-activating activity in the CHO reporter cell |
| --- | --- |
| O=C(O)c1ccc(CNC(=O)C(c2ccc(Cn3nc(-c4ccc(Cl)cc4)c4ccccc4c3=O)cc2)C2CCCC2)cc1 (racemic) [Example 1, 4-({[(4-{[4-(4-Chlorophenyl)-1-oxophthalazin-2(1H)-yl]methyl}phenyl)(cyclopentyl)acetyl]-amino}methyl)benzenecarboxylic acid] | 10 nM |
| O=C(O)c1ccc(CNC(=O)C(c2ccc(Cn3nc(-c4ccc(Cl)cc4)c4ccccc4c3=O)cc2)C2CCCC2)nc1 (racemic) [Example 11, 6-({[(4-{[4-(4-chlorophenyl)-1-oxophthalazin-2(1H)-yl]-methyl}phenyl)(cyclopentyl)acetyl]amino}methyl)-pyridine-3-carboxylic acid] | 300 nM |
| CCC(C)C(C(=O)Nc1cccc(CCC(=O)O)c1)c1ccc(CN2N=C(c3ccccc3)OCC2=O)cc1 (single isomer, unassigned) [Example 62, 3-{3-[(3-Methyl-2-{4-[(5-oxo-2-phenyl-5,6-dihydro-4H-1,3,4-oxadiazin-4-yl)methyl]-phenyl}pentanoyl)amino]phenyl}propanoic acid] | 3 nM |
| CC(C)C(C(=O)Nc1cccc(CCC(=O)O)c1)c1ccc(CN2N=C(c3ccccc3)OCC2=O)cc1 (single isomer, unassigned) [Example 105, 3-{3-[(3-mcthyl-2-{4-[(5-oxo-2-phcnyl-5,6-dihydro-4H-l,3,4-oxadiazin-4-yl)mcthyl]phenyl}butanoyl)-amino]phcnyl}propanoic acid] | 10 nM |
| CC(C)C(C(=O)Nc1ccc(CCC(=O)O)cc1)c1ccc(CN2N=C(c3ccccc3)OCC2=O)cc1 (single isomer, unassigned) [Example 106, 3-{4-[(3-mcthyl-2-{4-[(5-oxo-2-phcny1-5,6-dihydro-4H-1,3,4-oxadiazin-4-yl)mcthyl]phenyl}butanoyl)-amino]phcnyl}propanoic acid] | 10 nM |
| O=C(O)CC[C@H]1CC[C@H](NC(=O)C(c2ccc(CN3N=C(c4ccccc4)OCC3=O)cc2)C2CCCC2)CC1 (single isomer, unassigned) [Example 118, 3-{trans-4-[(cyclopcntyl{4-[(5-oxo-2-phcnyl-5,6-dihydro-4H-1,3,4-oxadiazin-4-yl)mcthyl]phcnyl}acetyl)-amino]cyclohcxyl}propanoic acid] | 30 nM |
| O=C(O)c1ccc(CNC(=O)C(c2ccc(CN3N=C(c4ccccc4)OCC3=O)cc2)C2CCCC2)cc1 (single isomer, unassigned; ent-4) [Example 38, ent-4-{[(Cyclopentyl{4-[(5-oxo-2-phenyl-5,6-dihydro-4H-1,3,4-oxadiazin-4-yl)methyl]phenyl}acetyl)amino]methyl}benzenecarboxylic acid] | 30 nM |
| COCC(C)C(C(=O)Nc1cccc(CCC(=O)O)c1C)c1ccc(CN2N=C(c3ccccc3)OCC2=O)cc1 (centres unmarked) [Example 3, 3-{3-[(4-Methoxy-3-methyl-2-{4-[(5-oxo-2-phenyl-5,6-dihydro-4H-1,3,4-oxadiazin-4-yl)-methyl]phenyl}butanoyl)amino]-2-methylphenyl}propanoic acid] | 300 nM |

Second part, the compound after the results:

| MEC (minimum effective concentration), sGC-activating activity in the CHO reporter cell | SMILES |
| --- | --- |
| 30 nM | O=C(O)CCc1cccc(NC(=O)C(c2ccc(Cn3nnc4ccccc4c3=O)cc2)C2CCCC2)c1 (racemic) [Example 21, 3-{3-[(cyclopentyl{4-[(4-oxo-1,2,3-benzotriazin-3(4H)-yl)methyl]phenyl}acetyl)amino]phenyl}-propanoic acid] |
| 300 nM | O=C(O)CCc1cccc(NC(=O)C(c2ccc(Cn3nc(-c4ccccc4)oc3=O)cc2)C2CCCC2)c1 (racemic) [Example 22] |
| 300 nM | Cc1c(CCC(=O)O)cccc1NC(=O)C(c1ccc(CN2CCN(c3cccc(Cl)c3)C2=O)cc1)C1CCCC1 (racemic) [Example 26, 3-(3-{[(4-{[3-(3-chlorophenyl)-2-oxoimidazolidin-1-yl]methyl}phenyl)(cyclopentyl)acetyl]amino}-2-methylphenyl)propanoic acid] |
| 30 nM | Cc1c(CCC(=O)O)cccc1NC(=O)C(c1ccc(Cn2nnc3ccccc3c2=O)cc1)C1CCCC1 (racemic) [Example 29, 3-{3-[(cyclopentyl{4-[(4-oxo-1,2,3-benzotriazin-3(4H)-yl)methyl]phenyl}acetyl)amino]-2-methyl-phenyl}propanoic acid] |
| 30 nM | Cc1c(CCC(=O)O)cccc1NC(=O)C(c1ccc(Cn2nc(-c3ccccc3)oc2=O)cc1)C1CCCC1 (racemic) [Example 30, 3-{3-[(cyclopentyl{4-[(2-oxo-5-phenyl-1,3,4-oxadiazol-3(2H)-yl)methyl]phenyl}acetyl)amino]-2-methylphenyl}propanoic acid] |
| 1 nM | O=C(O)CCc1ccc(Cl)c(NC(=O)C(c2ccc(CN3N=C(c4ccccc4)OCC3=O)cc2)C2CCCC2)c1 (centres unmarked) [Example 187, 3-{4-chloro-3-[(cyclopentyl{4-[(5-oxo-2-phenyl-5,6-dihydro-4H-1,3,4-oxadiazin-4-yl)methyl]-phenyl}acetyl)amino]phenyl}propanoic acid] |

Source: US8987256B2, “Oxo-heterocyclic substituted carboxylic acid derivatives and the use thereof” (Bayer Intellectual Property GmbH, priority 2008, dated 2015)
